Experimental data taken from patent publication US20230081426A1, “COMPOUNDS AND METHODS FOR KRAS MODULATION AND INDICATIONS THEREFOR” (Plexxikon Inc., priority 2020, published 2023).

Columns and labels:
[1] = biological target: T1, G12D-mutant human KRAS (amino acid residues 1-188) (Homo sapiens, UniProt P01116, G12D); test: KRAS Binding Disruption Assay (AlphaScreen; biotinylated KRpep-2d analogue or RAF1-RBD), G12D; settings: KRAS G12D; geometric mean; read-out: KRAS GMean IC50 (uM) MUTATION: G12D
T1 construct: G12D or G12C-mutant human KRAS (amino acid residues 1-188) with FLAG tag; made in house; host or cells: E. coli
Method in brief: (§1)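 Mutant KRAS (5-20 nM) incubated 1 h at 25° C with test compound and 5-20 nM biotinylated KRpep-2d analogue or RAF1-RBD in 20 mM HEPES pH 7.5, 100 mM NaCl, 5 mM MgCl2, 0.01% Tween-20, 0.01% BSA.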

[2] = biological target: T2, G12C-mutant human KRAS (amino acid residues 1-188) (Homo sapiens, UniProt P01116, G12C); test: KRAS Binding Disruption Assay (AlphaScreen; biotinylated KRpep-2d analogue or RAF1-RBD), G12C; settings: geometric mean, read-out: KRAS GMean IC50 (uM) MUTATION: G12C
T2 construct: G12D or G12C-mutant human KRAS (amino acid residues 1-188) with FLAG tag; made in house; host or cells: E. coli
Method in brief: as §1

[3] = biological target: T3, G12V-mutant human KRAS (amino acid residues 1-188) (Homo sapiens, UniProt P01116, G12V); test: KRAS Binding Competition Assay (AlphaScreen; biotinylated KRpep-2d analogue), G12V; settings: geometric mean, read-out: KRAS GMean IC50 (uM) MUTATION: G12V
T3 construct: G12V-mutant human KRAS (amino acid residues 1-188) with FLAG tag was purified from E. coli; made in house; host or cells: E. coli

| Structure (SMILES) | IC50 [1] | IC50 [2] | IC50 [3] |
| --- | --- | --- | --- |
| CN1CCC[C@H]1COc1nc(N2CC3COCC(C2)N3)c2ccc(-c3cc(O)cc4ccccc34)c(F)c2n1 [P-0249, 4-(4-(3-oxa-7,9-diazabicyclo[3.3.1]nonan-7-yl)-8-fluoro-2-(((S)-1-methylpyrrolidin-2-yl)methoxy)quinazolin-7-yl)naphthalen-2-ol] | 0.0001 to 10 µM | 0.0001 to 10 µM | 0.0001 to 10 µM |
| CN1CCC[C@H]1COc1nc(N2C[C@H]3CC[C@@H](C2)N3C(=O)CC2SC(=O)NC2=O)c2ccc(-c3cc(O)cc4ccccc34)c(F)c2n1 (stereo partly drawn) [P-0279, 5-(2-((1R,5S)-3-(8-fluoro-7-(3-hydroxynaphthalen-1-yl)-2-(((S)-1-methylpyrrolidin-2-yl)methoxy)quinazolin-4-yl)-3,8-diazabicyclo[3.2.1]octan-8-yl)-2-oxoethyl)thiazolidine-2,4-dione] | 0.0001 to 10 µM | 0.0001 to 10 µM | 0.0001 to 10 µM |
| O=C1NC(=O)C(CC(=O)N2[C@@H]3CC[C@H]2CN(c2nc(OCC45CCCN4CCC5)nc4c(F)c(-c5cc(O)cc6ccccc56)ccc24)C3)S1 (stereo partly drawn) [P-0299, 5-(2-((1R,5S)-3-(8-fluoro-7-(3-hydroxynaphthalen-1-yl)-2-((tetrahydro-1H-pyrrolizin-7a(5H)-yl)methoxy)quinazolin-4-yl)-3,8-diazabicyclo[3.2.1]octan-8-yl)-2-oxoethyl)thiazolidine-2,4-dione] | 0.0001 to 10 µM | 0.0001 to 10 µM | 0.0001 to 10 µM |
| CN1CCC[C@H]1COc1nc(N2CC3CCC2CN3C(=O)CC2SC(=O)NC2=O)c2ccc(-c3cc(O)cc4ccccc34)c(F)c2n1 (stereo partly drawn) [P-0328, 5-(2-(5-(8-fluoro-7-(3-hydroxynaphthalen-1-yl)-2-(((S)-1-methylpyrrolidin-2-yl)methoxy)quinazolin-4-yl)-2,5-diazabicyclo[2.2.2]octan-2-yl)-2-oxoethyl)thiazolidine-2,4-dione] | 0.0001 to 10 µM | 0.0001 to 10 µM | 0.0001 to 10 µM |
| O=C(CCCn1ccnc1)N1[C@@H]2CC[C@H]1CN(c1nc(OCC34CCCN3CCC4)nc3c(F)c(-c4cc(O)cc5ccccc45)ccc13)C2 [P-0351, 1-((1R,5S)-3-(8-fluoro-7-(3-hydroxynaphthalen-1-yl)-2-((tetrahydro-1H-pyrrolizin-7a(5H)-yl)methoxy)quinazolin-4-yl)-3,8-diazabicyclo[3.2.1]octan-8-yl)-4-(1H-imidazol-1-yl)butan-1-one] | 0.0001 to 10 µM | 0.0001 to 10 µM | 0.0001 to 10 µM |
| NS(=O)(=O)CC(=O)N1[C@@H]2CC[C@H]1CN(c1nc(OCC34CCCN3CCC4)nc3c(F)c(-c4cc(O)cc5ccccc45)ccc13)C2 [P-0352, 2-((1R,5S)-3-(8-fluoro-7-(3-hydroxynaphthalen-1-yl)-2-((tetrahydro-1H-pyrrolizin-7a(5H)-yl)methoxy)quinazolin-4-yl)-3,8-diazabicyclo[3.2.1]octan-8-yl)-2-oxoethane-1-sulfonamide] | 0.0001 to 10 µM | 0.0001 to 10 µM | 0.0001 to 10 µM |
| N#CCC(=O)N1[C@@H]2CC[C@H]1CN(c1nc(OCC34CCCN3CCC4)nc3c(F)c(-c4cc(O)cc5ccccc45)ccc13)C2 [P-0354, 3-((1R,5S)-3-(8-fluoro-7-(3-hydroxynaphthalen-1-yl)-2-((tetrahydro-1H-pyrrolizin-7a(5H)-yl)methoxy)quinazolin-4-yl)-3,8-diazabicyclo[3.2.1]octan-8-yl)-3-oxopropanenitrile] | 0.0001 to 10 µM | 0.0001 to 10 µM | 0.0001 to 10 µM |
| O=C1CC(CC(=O)N2[C@@H]3CC[C@H]2CN(c2nc(OCC45CCCN4CCC5)nc4c(F)c(-c5cc(O)cc6ccccc56)ccc24)C3)C(=O)N1 (stereo partly drawn) [P-0356, 3-(2-((1R,5S)-3-(8-fluoro-7-(3-hydroxynaphthalen-1-yl)-2-((tetrahydro-1H-pyrrolizin-7a(5H)-yl)methoxy)quinazolin-4-yl)-3,8-diazabicyclo[3.2.1]octan-8-yl)-2-oxoethyl)pyrrolidine-2,5-dione] | 0.0001 to 10 µM | 0.0001 to 10 µM | 0.0001 to 10 µM |
| CN1CCC[C@H]1COc1nc(N2CC3COCC(C2)N3)c2cc(Cl)c(-c3cc(O)cc4cccc(Cl)c34)c(F)c2n1 [P-0365, 4-(4-(3-oxa-7,9-diazabicyclo[3.3.1]nonan-7-yl)-6-chloro-8-fluoro-2-(((S)-1-methylpyrrolidin-2-yl)methoxy)quinazolin-7-yl)-5-chloronaphthalen-2-ol] | 0.0001 to 10 µM | 0.0001 to 10 µM | 0.0001 to 10 µM |
| O=C1NC(=O)C(CC(=O)N2[C@@H]3CC[C@H]2CN(c2nc(OCC45CCCN4CCC5)nc4c(F)c(-c5cc(O)cc6ccccc56)ccc24)C3)N1 (stereo partly drawn) [P-0366] | 0.0001 to 10 µM | 0.0001 to 10 µM | 0.0001 to 10 µM |
| O=C1NC(=O)C(CCC(=O)N2[C@@H]3CC[C@H]2CN(c2nc(OCC45CCCN4CCC5)nc4c(F)c(-c5cc(O)cc6ccccc56)ccc24)C3)N1 (stereo partly drawn) [P-0375, 5-(3-((1R,5S)-3-(8-fluoro-7-(3-hydroxynaphthalen-1-yl)-2-((tetrahydro-1H-pyrrolizin-7a(5H)-yl)methoxy)quinazolin-4-yl)-3,8-diazabicyclo[3.2.1]octan-8-yl)-3-oxopropyl)imidazolidine-2,4-dione] | 0.0001 to 10 µM | 0.0001 to 10 µM | 0.0001 to 10 µM |
| NC1=NC(=O)C(CC(=O)N2[C@@H]3CC[C@H]2CN(c2nc(OCC45CCCN4CCC5)nc4c(F)c(-c5cc(O)cc6ccccc56)ccc24)C3)S1 (stereo partly drawn) [P-0384, 2-amino-5-(2-((1R,5S)-3-(8-fluoro-7-(3-hydroxynaphthalen-1-yl)-2-((tetrahydro-1H-pyrrolizin-7a(5H)-yl)methoxy)quinazolin-4-yl)-3,8-diazabicyclo[3.2.1]octan-8-yl)-2-oxoethyl)thiazol-4 (5H)-one] | 0.0001 to 10 µM | 0.0001 to 10 µM | 0.0001 to 10 µM |
| O=C(Cn1ccnc1)N1[C@@H]2CC[C@H]1CN(c1nc(OCC34CCCN3CCC4)nc3c(F)c(-c4cc(O)cc5ccccc45)ccc13)C2 [P-0387, 1-((1R,5S)-3-(8-fluoro-7-(3-hydroxynaphthalen-1-yl)-2-((tetrahydro-1H-pyrrolizin-7a(5H)-yl)methoxy)quinazolin-4-yl)-3,8-diazabicyclo[3.2.1]octan-8-yl)-2-(1H-imidazol-1-yl)ethan-1-one] | 0.0001 to 10 µM | 0.0001 to 10 µM | 0.0001 to 10 µM |

Other lines, results leading:

| IC50 [1] | IC50 [2] | IC50 [3] | Structure (SMILES) |
| --- | --- | --- | --- |
| 0.0001 to 10 µM | 0.0001 to 10 µM | 0.0001 to 10 µM | CN1CCC[C@H]1COc1nc(N2C[C@H]3CC[C@@H](C2)N3C(=O)C(N)=O)c2ccc(-c3cc(O)cc4ccccc34)c(F)c2n1 [P-0397, 2-((1R,5S)-3-(8-fluoro-7-(3-hydroxynaphthalen-1-yl)-2-(((S)-1-methylpyrrolidin-2-yl)methoxy)quinazolin-4-yl)-3,8-diazabicyclo[3.2.1]octan-8-yl)-2-oxoacetamide] |
| 0.0001 to 10 µM | 0.0001 to 10 µM | 0.0001 to 10 µM | NS(=O)(=O)NCC(=O)N1[C@@H]2CC[C@H]1CN(c1nc(OCC34CCCN3CCC4)nc3c(F)c(-c4cc(O)cc5ccccc45)ccc13)C2 [P-0408, N-(2-((1R,5S)-3-(8-fluoro-7-(3-hydroxynaphthalen-1-yl)-2-((tetrahydro-1H-pyrrolizin-7a(5H)-yl)methoxy)quinazolin-4-yl)-3,8-diazabicyclo[3.2.1]octan-8-yl)-2-oxoethyl)aminosulfonamide] |
| 0.0001 to 10 µM | 0.0001 to 10 µM | 0.0001 to 10 µM | N#CC1(CC(=O)N2[C@@H]3CC[C@H]2CN(c2nc(OCC45CCCN4CCC5)nc4c(F)c(-c5cc(O)cc6ccccc56)ccc24)C3)CC1 [P-0409, 1-(2-((1R,5S)-3-(8-fluoro-7-(3-hydroxynaphthalen-1-yl)-2-((tetrahydro-1H-pyrrolizin-7a(5H)-yl)methoxy)quinazolin-4-yl)-3,8-diazabicyclo[3.2.1]octan-8-yl)-2-oxoethyl)cyclopropane-1-carbonitrile] |
| 0.0001 to 10 µM | 0.0001 to 10 µM | 0.0001 to 10 µM | O=C1N=C(S)SC1CC(=O)N1[C@@H]2CC[C@H]1CN(c1nc(OCC34CCCN3CCC4)nc3c(F)c(-c4cc(O)cc5ccccc45)ccc13)C2 (stereo partly drawn) [P-0411, 5-(2-((1R,5S)-3-(8-fluoro-7-(3-hydroxynaphthalen-1-yl)-2-((tetrahydro-1H-pyrrolizin-7a(5H)-yl)methoxy)quinazolin-4-yl)-3,8-diazabicyclo[3.2.1]octan-8-yl)-2-oxoethyl)-2-mercaptothiazol-4(5H)-one] |
| 0.0001 to 10 µM | 0.0001 to 10 µM | 0.0001 to 10 µM | CN1C(=O)SC(CC(=O)N2[C@@H]3CC[C@H]2CN(c2nc(OCC45CCCN4CCC5)nc4c(F)c(-c5cc(O)cc6ccccc56)ccc24)C3)C1=O (stereo partly drawn) [P-0412, 5-(2-((1R,5S)-3-(8-fluoro-7-(3-hydroxynaphthalen-1-yl)-2-((tetrahydro-1H-pyrrolizin-7a(5H)-yl)methoxy)quinazolin-4-yl)-3,8-diazabicyclo[3.2.1]octan-8-yl)-2-oxoethyl)-3-methylthiazolidine-2,4-dione] |
| 0.0001 to 10 µM | 0.0001 to 10 µM | 0.0001 to 10 µM | O=C1N[C@@H](CC(=O)N2[C@@H]3CC[C@H]2CN(c2nc(OCC45CCCN4CCC5)nc4c(F)c(-c5cc(O)cc6ccccc56)ccc24)C3)CO1 [P-0414, (S)-4-(2-((1R,5S)-3-(8-fluoro-7-(3-hydroxynaphthalen-1-yl)-2-((tetrahydro-1H-pyrrolizin-7a(5H)-yl)methoxy)quinazolin-4-yl)-3,8-diazabicyclo[3.2.1]octan-8-yl)-2-oxoethyl)oxazolidin-2-one] |
